In ChEMBL document CHEMBL1201862, “PubChem BioAssay data set” (2004):
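Each compound was tested at five concentrations against cells in 96-well plates for 48 hours. Abbreviation: GI50, concentration required for 50% inhibition of growth.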 Calls of active or inactive are those of the source. Cut-off read from the data, not from the text of the source: active = GI50 up to about 1.1 µM and inactive = higher.

Tests used:
Assay in all cases: inhibition of tumour cell growth, NCI panel, 48 h
HCC 2998 = tested on: HCC 2998
SW-620 = tested on: SW-620
SN12C = tested on: SN12C
HCT-116 = tested on: HCT-116
K562 = tested on: K562
SF-295 = tested on: SF-295
PC-3 = tested on: PC-3
HOP-62 = tested on: HOP-62
IGROV-1 = tested on: IGROV-1
HCT-15 = tested on: HCT-15
MDA-MB-435 = tested on: MDA-MB-435
EKVX = tested on: EKVX
UACC-62 = tested on: UACC-62
CCRF-CEM = tested on: CCRF-CEM
NCI-H23 = tested on: NCI-H23
SF-268 = tested on: SF-268
NCI-H460 = tested on: NCI-H460
UO-31 = tested on: UO-31
TK-10 = tested on: TK-10
MDA-MB-231 = tested on: MDA-MB-231

Compound | GI50 (HCC 2998) | GI50 (SW-620) | GI50 (SN12C) | GI50 (HCT-116) | GI50 (K562) | GI50 (SF-295) | GI50 (PC-3) | GI50 (HOP-62) | GI50 (IGROV-1) | GI50 (HCT-15) | GI50 (MDA-MB-435) | GI50 (EKVX) | GI50 (UACC-62) | GI50 (CCRF-CEM) | GI50 (NCI-H23) | GI50 (SF-268) | GI50 (NCI-H460) | GI50 (UO-31) | GI50 (TK-10) | GI50 (MDA-MB-231)
S=C(S)NCCN1CCNCC1 | 22.7 µM (inactive) | 20.7 µM (inactive) | 49.2 µM (inactive) | 27.9 µM (inactive) | 24.4 µM (inactive) | > 100 µM (inactive) | 34.3 µM (inactive) | > 100 µM (inactive) | 49.5 µM (inactive) | 47.8 µM | 62.1 µM (inactive) | 57.1 µM (inactive) | 84.9 µM (inactive) | 21.1 µM (inactive) | > 100 µM (inactive) | 99.3 µM (inactive) | 34.6 µM (inactive) | 29.7 µM (inactive) | 20.8 µM (inactive) | > 100 µM (inactive)
Ic1cccc(/C=C/CN2CCN(CCOC(c3ccccc3)c3ccccc3)CC2)c1 | 6.97 µM (inactive) | 26.7 µM (inactive) | 13.9 µM (inactive) | 12.6 µM (inactive) | 4.62 µM (inactive) | 17.5 µM (inactive) | 17.5 µM (inactive) | 17 µM (inactive) | 19.7 µM (inactive) | 14.2 µM | 14.4 µM (inactive) | 17.7 µM (inactive) | 18.6 µM (inactive) | 6.5 µM (inactive) | 16.2 µM (inactive) | 27.2 µM (inactive) | 11.3 µM (inactive) | 13 µM (inactive) | 16.1 µM (inactive) | 14 µM (inactive)
COc1cc(C2c3cc4c(cc3OC(NCCc3ccccc3)C2C)OCO4)cc(OC)c1OC (stereo not given) | 0.282 µM (active) | 0.316 µM (active) | 0.698 µM (active) | 0.409 µM (active) | 0.269 µM (active) | 0.2 µM (active) | 0.336 µM (active) | 0.614 µM (active) | 0.367 µM (active) | 0.385 µM | 0.111 µM (active) | 1.56 µM (inactive) | 0.388 µM (active) | 0.343 µM (active) | 0.413 µM (active) | 0.736 µM (active) | 0.418 µM (active) | 0.457 µM (active) | 26.5 µM (inactive) | 0.249 µM (active)
C[N+](C)(C)CC(=O)N/N=C(\Cc1nc2ccc([N+](=O)[O-])cc2nc1O)C(=O)Nc1nc2ccc([N+](=O)[O-])cc2s1 | 36.9 µM (inactive) | 78 µM (inactive) | 89.1 µM (inactive) | 51.9 µM (inactive) | 86.3 µM (inactive) | 51.8 µM (inactive) | 27.1 µM (inactive) | 57.9 µM (inactive) | 23.5 µM (inactive) | 28 µM | 85.1 µM (inactive) | 25 µM (inactive) | 62.2 µM (inactive) | 40.9 µM (inactive) | 30.7 µM (inactive) | 34 µM (inactive) | 23.4 µM (inactive) | 25.7 µM (inactive) | 67.6 µM (inactive) | > 100 µM (inactive)
COc1ccc(OC)c2c1C=C[C@H](C1(C)SCCS1)C2C(C)=O (stereo not given in full) | 50.1 µM (inactive) | 33.1 µM (inactive) | 35.3 µM (inactive) | 23 µM (inactive) | 32.7 µM (inactive) | 23.9 µM (inactive) | 26.7 µM (inactive) | 39.8 µM (inactive) | 42.4 µM (inactive) | 33.1 µM | 23.9 µM (inactive) | 41.1 µM (inactive) | 20.8 µM (inactive) | 27.7 µM (inactive) | 22.6 µM (inactive) | 29.6 µM (inactive) | 27.9 µM (inactive) | 24.2 µM (inactive) | 40.2 µM (inactive) | 32.2 µM (inactive)
COC(=O)c1ccc2c(c1)C(NC(C)=O)CCc1cc(OC)c(OC)c(OC)c1-2 (stereo not given) | 0.0327 µM (active) | 0.0129 µM (active) | 0.0223 µM (active) | < 0.0114 µM (active) | 0.0128 µM (active) | 0.0117 µM (active) | < 0.0127 µM (active) | 0.0158 µM (active) | 0.0163 µM (active) | 0.0366 µM | < 0.01 µM (active) | 4.19 µM (inactive) | 0.0131 µM (active) | 0.0133 µM (active) | 0.0136 µM (active) | 0.0139 µM (active) | 0.0259 µM (active) | 0.0721 µM (active) | 16.9 µM (inactive) | < 0.02 µM (active)
Nc1nc(Cl)c(C=O)c(NCC2(CO)CCC2)n1 | 9.48 µM (inactive) | 28.2 µM (inactive) | 45.2 µM (inactive) | 17.7 µM (inactive) | 3.83 µM (inactive) | 22.8 µM (inactive) | 17.7 µM (inactive) | 25.4 µM (inactive) | 12.3 µM (inactive) | 11.8 µM | 28.8 µM (inactive) | 17.6 µM (inactive) | 14.3 µM (inactive) | 12.9 µM (inactive) | 26.4 µM (inactive) | 16.6 µM (inactive) | 31 µM (inactive) | 21.8 µM (inactive) | > 100 µM (inactive) | 22.9 µM (inactive)
Cc1ccc(Nc2nc(C)c(C(=O)CC(=O)C(=O)Nc3ccc(Cl)cc3)s2)cc1 | > 100 µM (inactive) | > 100 µM (inactive) | > 100 µM (inactive) | > 100 µM (inactive) | > 100 µM (inactive) | > 100 µM (inactive) | > 100 µM (inactive) | > 100 µM (inactive) | > 100 µM (inactive) | > 100 µM | > 100 µM (inactive) | > 100 µM (inactive) | > 100 µM (inactive) | > 100 µM (inactive) | > 100 µM (inactive) | 49.5 µM (inactive) | > 100 µM (inactive) | > 100 µM (inactive) | > 100 µM (inactive) | 56.5 µM (inactive)
CCOC(=O)C1(Cc2ccccc2)Cc2cc3c(cc2C1)CCC3 | 21.4 µM (inactive) | 28.6 µM (inactive) | 33.3 µM (inactive) | 24.3 µM (inactive) | 22.5 µM (inactive) | 29.4 µM (inactive) | 25.7 µM (inactive) | 37.2 µM (inactive) | 39 µM (inactive) | 27.7 µM | 30.2 µM (inactive) | 42.8 µM (inactive) | 30.1 µM (inactive) | 16.5 µM (inactive) | 27 µM (inactive) | 52.4 µM (inactive) | 31.3 µM (inactive) | 40.9 µM (inactive) | 92.7 µM (inactive) | 30.4 µM (inactive)
CC(=O)Nc1ccc(C(=O)NN2C(=O)C(Cl)C2c2ccc(Cl)cc2)cc1 (stereo not given) | > 100 µM (inactive) | > 100 µM (inactive) | 39.6 µM (inactive) | > 100 µM (inactive) | > 100 µM (inactive) | 20.6 µM (inactive) | > 100 µM (inactive) | 22.2 µM (inactive) | 37.3 µM (inactive) | > 100 µM | > 100 µM (inactive) | > 100 µM (inactive) | > 100 µM (inactive) | > 100 µM (inactive) | 44.8 µM (inactive) | 23.3 µM (inactive) | > 90.4 µM (inactive) | > 100 µM (inactive) | > 100 µM (inactive) | 22.1 µM (inactive)
COC(=O)NC1C(C)OC(OC2C/C=C(/C)C3C=CC4C(OC5CC(OC6CCC(OC7CC(O)C(OC8CCC(O)C(C)O8)C(C)O7)C(C)O6)C(OC(C)=O)C(C)O5)C(C)CC(C)C4C3(C)/C(O)=C3/C(=O)OC4(CC(C=O)=CC(O)C4/C=C\2C)C3=O)CC1(C)[N+](=O)[O-] (stereo not given) | 0.951 µM (active) | 0.989 µM (active) | 0.964 µM (active) | 0.69 µM (active) | 0.885 µM (active) | 0.993 µM (active) | 1.57 µM (inactive) | 0.767 µM (active) | 3.44 µM (inactive) | 0.832 µM | 0.382 µM (active) | 1.85 µM (inactive) | 0.552 µM (active) | 0.178 µM (active) | 0.774 µM (active) | 0.719 µM (active) | 0.778 µM (active) | 1.68 µM (inactive) | 1.61 µM (inactive) | 0.755 µM (active)
CC1=C2O[C@]3(O)C=C2C(=C(O)C1=O)[C@@H]1O[C@H](CC[C@H](C)/C=C(\C)C[C@@H](C)C[C@@H]3C)[C@H](C)[C@H](O)[C@H]1C [KENDOMYCIN] | 0.167 µM (active) | 0.582 µM (active) | 0.811 µM (active) | 0.176 µM (active) | 0.166 µM (active) | 1.22 µM (inactive) | 0.269 µM (active) | 0.356 µM (active) | 0.163 µM (active) | 0.124 µM | 0.145 µM (active) | 0.356 µM (active) | 0.233 µM (active) | 0.0473 µM (active) | 0.316 µM (active) | 0.354 µM (active) | 0.728 µM (active) | 0.193 µM (active) | 0.155 µM (active) | 0.151 µM (active)
N#Cc1ccnc(C(=O)N2CCCC2C(=O)O)c1 (stereo not given) | > 100 µM (inactive) | > 100 µM (inactive) | > 100 µM (inactive) | > 100 µM (inactive) | > 82.8 µM (inactive) | > 100 µM (inactive) | > 100 µM (inactive) | > 100 µM (inactive) | > 100 µM (inactive) | > 100 µM | > 100 µM (inactive) | > 100 µM (inactive) | > 100 µM (inactive) | > 100 µM (inactive) | > 100 µM (inactive) | > 100 µM (inactive) | > 100 µM (inactive) | > 100 µM (inactive) | > 100 µM (inactive) | > 100 µM (inactive)
O=C(Nc1sccc1S(=O)(=O)c1ccc(Cl)cc1)c1ccc(Cl)cc1 | > 100 µM (inactive) | > 100 µM (inactive) | > 100 µM (inactive) | > 100 µM (inactive) | > 100 µM (inactive) | 34 µM (inactive) | 25.9 µM (inactive) | 39.4 µM (inactive) | > 100 µM (inactive) | > 100 µM | > 100 µM (inactive) | 31 µM (inactive) | > 100 µM (inactive) | > 100 µM (inactive) | 68.5 µM (inactive) | 65.9 µM (inactive) | 56.5 µM (inactive) | 86.3 µM (inactive) | 50.8 µM (inactive) | 35.2 µM (inactive)
